This passage reports EC50 and IC50 results from patent US20240400591A1 (Jacobio Pharmaceuticals Co., Ltd., priority 2021, published 2024).

Experiment [1] addresses T1, His-p53 Y220C (94-294) protein (Homo sapiens, UniProt P04637, Y220C).
T1 construct: His-p53 Y220C (94-294) protein
The experiment in a line: In vitro DNA binding assay (HTRF). As to conditions: % activation normalized to 2 μM Ref-1a high control. It is filed as biochemical. In general terms: In TR-FRET formats the signal depends on donor and acceptor labels being close together.

The test system of a further experiment is NUGC3 (P53 Y220C). The experiment in a line: Cell viability assay (CellTiter-Glo, 6 days), NUGC3. It is filed as cell-based. As to conditions: cell viability, 6 days, CellTiter-Glo, read-out: NUGC3 (P53 Y220C) IC50. The procedure: (§1) Cells were collected and counted. A desired number of cells was seeded into 96-well microplate and cultured in 37° C. cell incubator overnight. Compounds dissolved in cell culture medium were added into cell plate and cultured for 6 days. After balancing CellTiter-Glo reagent and cells at room temperature for 30 min, equal volume of CellTiter-Glo reagents was added to assay plate and shaken for 2 min for cell lysis. The cells were balanced at room temperature for 10 minutes and Luminescence signal was read using Envision. The percent of cell viability for compounds treated wells were normalized between High control and low control. Wells containing cell culture medium and same percentage DMSO sewved as Low control. Wells containing cells and same percentage DMSO sewved as High control. Cell viability (%)=(Luminescence readoutCompound treated−Luminescence readoutLow control)/(Luminescence readoutHigh control−Luminescence readoutLow control)*100%. Then the data were analyzed either by fitting a 4-parameter logistic model or by Excel to calculate IC50 values. And the IC50 was the concentration at 50% Cell viability on the curve.
A general note: In ATP-based viability assays light output follows the ATP content of the culture.

In the next experiment the test system is NUGC4 (P53 WT). Description: Cell viability assay (CellTiter-Glo, 6 days), NUGC4. Format: cell-based. As to conditions: cell viability, 6 days, CellTiter-Glo, read-out: NUGC4 (P53 WT) IC50. The procedure: as §1
Experiment [2] deals with NUGC-3_P53_Luc single clonal cell line (p53 Y220C). The experiment in a line: Reporter gene assay (p53 RE luciferase). To be noted: luciferase reporter, 6 hours, normalized to Ref-1a (10 μM) high control, read-out: p53(Y220C)_NUGC-3 EC50. Format: cell-based. As to the method:
NUGC-3_P53_Luc single clonal cell line was established using pGL4.38[luc2P/p53 RE/Hygro] Vector (E365A, promega). NUGC-3_P53-Luc single clonal cells were cultured in 37° C. cell incubator before use. NUGC-3-P53-Luc cells were collected and washed twice with PBS to remove phenol red and then resuspended in medium to a proper concentration. Tested compound dilutions were transferred into 384 well assay plates (PerkinElmer). A desired number of cells was seeded into the assay plate and cultured for 6 hours at 37° C. cell incubator. Britelite plus Luciferase Assay Reagent were added into each well and the luminescence value was recorded on Envision. The percent of activity value of compounds treated wells was normalized between high control and low control. Wells containing cells and Ref-1a (10 μM) sewved as high control, and wells containing cells and same percentage of DMSO sewved as low control. Activity value (%)=(Luminescence readoutCompound treated−Luminescence readoutLow control)/(Luminescence readoutHigh control−Luminescence readoutLow control)*100%. Then the data were analyzed either by fitting a 4-parameter logistic model or by Excel to calculate EC50 values and the EC50 was the concentration at 50% Activity on the curve.
A general note: A reporter such as luciferase makes a cellular process visible.

Each structure is given as a SMILES string. Where two headings read alike, the source gives them in different places.

For the compound `COc1cc(P(C)(C)=O)ccc1NCC#Cc1sc2c(N[C@@H]3CCN(CC(C)C)C[C@@H]3F)cccc2c1CC(F)(F)F` (racemic) [Example 101, (4-((3-(7-(((Z)-3-fluoro-1-isobutylpiperidin-4-yl)amino)-3-(2,2,2-trifluoroethyl)benzo[b]thiophen-2-yl)prop-2-yn-1-yl)amino)-3-methoxyphenyl)dimethylphosphine oxide], the EC50 (usually the concentration at which the effect is half-maximal) in experiment [1] is 105 nM; in experiment [2] (Homo sapiens, NUGC-3), 360 nM. Further, the IC50 (commonly the point on the concentration scale where inhibition reaches its midpoint) was 2050 nM in the experiment with NUGC3 (P53 Y220C) (Homo sapiens, NUGC-3, 144 h) and 2050 nM in the experiment on NUGC4 (P53 WT) (Homo sapiens, NUGC-4, 144 h).
Turning to `CN1CC[C@@H](Nc2cccc3c(CC(F)(F)F)c(C#CCNc4ccc(P(C)(C)=O)c5c4OCO5)sc23)[C@@H](F)C1` [Example 163, (7-((3-(7-(((3S,4R)-3-fluoro-1-methylpiperidin-4-yl)amino)-3-(2,2,2-trifluoroethyl)benzo[b]thiophen-2-yl)prop-2-yn-1-yl)amino)benzo[d][1,3]dioxol-4-yl)dimethylphosphine oxide], the EC50 amounted to 50 nM in experiment [1] and 180 nM in experiment [2] (Homo sapiens, NUGC-3). In addition, the IC50 was determined as 1210 nM in the experiment with NUGC3 (P53 Y220C) (Homo sapiens, NUGC-3, 144 h) and 3820 nM in the experiment with NUGC4 (P53 WT) (Homo sapiens, NUGC-4, 144 h).
As to `COc1cc(P(C)(C)=O)ccc1NCC#Cc1sc2c(N[C@@H]3CCN(C4COC4)C[C@@H]3F)cccc2c1CC(F)(F)F` (racemic) [Example 75, (4-((3-(7-(((Z)-3-fluoro-1-(oxetan-3-yl)piperidin-4-yl)amino)-3-(2,2,2-trifluoroethyl)benzo[b]thiophen-2-yl)prop-2-yn-1-yl)amino)-3-methoxyphenyl)dimethylphosphine oxide], the EC50 in experiment [1] is 82 nM; in experiment [2] (Homo sapiens, NUGC-3), 160 nM. The IC50 in the experiment with NUGC3 (P53 Y220C) (Homo sapiens, NUGC-3, 144 h) came to 1020 nM; in the experiment with NUGC4 (P53 WT) (Homo sapiens, NUGC-4, 144 h), 5340 nM.
Turning to `CN1CC[C@@H](Nc2cccc3c(CC(F)(F)F)c(C#CCNc4ccc(P(C)(C)=O)cc4S(C)(=O)=O)sc23)[C@@H](F)C1` [Example 175, (4-((3-(7-(((3S,4R)-3-fluoro-1-methylpiperidin-4-yl)amino)-3-(2,2,2-trifluoroethyl)benzo[b]thiophen-2-yl)prop-2-yn-1-yl)amino)-3-(methylsulfonyl)phenyl)dimethylphosphine oxide], the EC50 came out at 66 nM in experiment [1] and 640 nM in experiment [2] (Homo sapiens, NUGC-3). The IC50 in the experiment with NUGC3 (P53 Y220C) (Homo sapiens, NUGC-3, 144 h) came to 3550 nM; with NUGC4 (P53 WT) (Homo sapiens, NUGC-4, 144 h), 35200 nM.
On to `COc1cc(P(C)(C)=O)ccc1NCC#Cc1sc2c(N[C@@H]3CCN(C4CCCCOC4)C[C@@H]3F)cccc2c1CC(F)(F)F` (stereo partly drawn) [Example 185, (4-((3-(7-(((3S,4R)-3-fluoro-1-(oxepan-3-yl)piperidin-4-yl)amino)-3-(2,2,2-trifluoroethyl)benzo[b]thiophen-2-yl)prop-2-yn-1-yl)amino)-3-methoxyphenyl)dimethylphosphine oxide], for which the EC50 came out at 54 nM in experiment [1] and 110 nM in experiment [2] (Homo sapiens, NUGC-3). For the same compound, the IC50 in the experiment with NUGC3 (P53 Y220C) (Homo sapiens, NUGC-3, 144 h) is 880 nM; in the experiment on NUGC4 (P53 WT) (Homo sapiens, NUGC-4, 144 h), 2790 nM.
Regarding `CN1CC[C@@H](Nc2cccc3c(CC(F)(F)F)c(C#CCNc4ccc(P(C)(C)=O)cc4-c4cnco4)sc23)[C@@H](F)C1` [Example 214, (4-((3-(7-(((3S,4R)-3-fluoro-1-methylpiperidin-4-yl)amino)-3-(2,2,2-trifluoroethyl)benzo[b]thiophen-2-yl)prop-2-yn-1-yl)amino)-3-(oxazol-5-yl)phenyl)dimethylphosphine oxide], the EC50 in experiment [1] came to 38 nM; in experiment [2] (Homo sapiens, NUGC-3, 6 h) it was 100 nM. The IC50 in the experiment with NUGC3 (P53 Y220C) (Homo sapiens, NUGC-3, 144 h) was determined as 380 nM; in the experiment on NUGC4 (P53 WT) (Homo sapiens, NUGC-4, 144 h), 13900 nM.
As for `COc1cc(C(=O)NC2CCN(C)CC2(F)F)ccc1NCC#Cc1sc2c(N[C@@H]3CCN(C)C[C@@H]3F)cccc2c1CC(F)(F)F` (relative stereo) [Example 94, N-(3,3-difluoro-1-methylpiperidin-4-yl)-4-((3-(7-(((Z)-3-fluoro-1-methylpiperidin-4-yl)amino)-3-(2,2,2-trifluoroethyl)benzo[b]thiophen-2-yl)prop-2-yn-1-yl)amino)-3-methoxybenzamide], the EC50 in experiment [1] was 85 nM; in experiment [2] (Homo sapiens, NUGC-3), 190 nM. Further, the IC50 with NUGC3 (P53 Y220C) (Homo sapiens, NUGC-3, 144 h) worked out at 1840 nM; with NUGC4 (P53 WT) (Homo sapiens, NUGC-4, 144 h), 2750 nM.
Take `COCC(O)CNC(=O)c1ccc(NCC#Cc2sc3c(NC4CCN(C)CC4F)cccc3c2CC(F)(F)F)c(OC)c1` (stereo not shown) [Example 59, 4-((3-(7-(((Z)-3-fluoro-1-methylpiperidin-4-yl)amino)-3-(2,2,2-trifluoroethyl)benzo[b]thiophen-2-yl)prop-2-yn-1-yl)amino)-N-(2-hydroxy-3-methoxypropyl)-3-methoxybenzamide]: the figures for the EC50 in experiment [1] and in experiment [2] were 73 nM and 150 nM, respectively. In addition, the values for the IC50 in the experiment on NUGC3 (P53 Y220C) and with NUGC4 (P53 WT) were 1440 nM and 9820 nM, respectively.
As for `COc1cc(P(C)(C)=O)ccc1NCC#Cc1sc2c(N[C@@H]3CCN(C4CCN(C)CC4)C[C@@H]3F)cccc2c1CC(F)(F)F` (racemic) [Example 72, (Z)-(4-((3-(7-((3-fluoro-1′-methyl-[1,4′-bipiperidin]-4-yl)amino)-3-(2,2,2-trifluoroethyl)benzo[b]thiophen-2-yl)prop-2-yn-1-yl)amino)-3-methoxyphenyl)dimethylphosphine oxide], the EC50 in experiment [1] was found to be 41 nM; in experiment [2] (Homo sapiens, NUGC-3, 6 h), 210 nM. Also, the IC50 came out at 430 nM with NUGC3 (P53 Y220C) (Homo sapiens, NUGC-3, 144 h) and 4430 nM with NUGC4 (P53 WT) (Homo sapiens, NUGC-4, 144 h).
For the compound `CN1CC[C@@H](Nc2cccc3c(CC(F)(F)F)c(C#CCNc4ccc(P(C)(C)=O)c5ncsc45)sc23)[C@@H](F)C1` [Example 220, (7-((3-(7-(((3S,4R)-3-fluoro-1-methylpiperidin-4-yl)amino)-3-(2,2,2-trifluoroethyl)benzo[b]thiophen-2-yl)prop-2-yn-1-yl)amino)benzo[d]thiazol-4-yl)dimethylphosphine oxide], the EC50 is 41 nM in experiment [1] and 150 nM in experiment [2] (Homo sapiens, NUGC-3). The IC50 in the experiment with NUGC3 (P53 Y220C) (Homo sapiens, NUGC-3, 144 h) amounted to 250 nM; in the experiment with NUGC4 (P53 WT) (Homo sapiens, NUGC-4, 144 h), 8110 nM.
Turning to `COc1cc(C(=O)NC2CCN(C)CC2F)ccc1NCC#Cc1sc2c(NC3CCN(C)CC3F)cccc2c1CC(F)(F)F` (stereo not shown) [Example 68, N-(3-fluoro-1-methylpiperidin-4-yl)-4-((3-(7-(((Z)-3-fluoro-1-methylpiperidin-4-yl)amino)-3-(2,2,2-trifluoroethyl)benzo[b]thiophen-2-yl)prop-2-yn-1-yl)amino)-3-methoxybenzamide], the results for the EC50 in experiment [1] and in experiment [2] were 44 nM and 640 nM, respectively. For the same compound, the IC50 was found to be 1080 nM with NUGC3 (P53 Y220C) and 1390 nM with NUGC4 (P53 WT).
In the case of `CN1CC[C@@H](Nc2cccc3c(CC(F)(F)F)c(C#CCNC(=O)c4cnn(C(C)(C)C)c4)sc23)[C@@H](F)C1` (racemic) [Example 129, 1-(tert-butyl)-N-(3-(7-(((Z)-3-fluoro-1-methylpiperidin-4-yl)amino)-3-(2,2,2-trifluoroethyl)benzo[b]thiophen-2-yl)prop-2-yn-1-yl)-1H-pyrazole-4-carboxamide], the EC50 in experiment [1] came to 69 nM; in experiment [2] (Homo sapiens, NUGC-3), 180 nM. Moreover, the IC50 in the experiment on NUGC3 (P53 Y220C) (Homo sapiens, NUGC-3, 144 h) stood at 1850 nM; with NUGC4 (P53 WT) (Homo sapiens, NUGC-4, 144 h), 8950 nM.
Turning to `COc1cc(P(C)(C)=O)ccc1NCC#Cc1sc2c(NC3C(C)CN(C)CC3C)cccc2c1CC(F)(F)F` (stereo not shown) [Example 131, (3-methoxy-4-((3-(3-(2,2,2-trifluoroethyl)-7-(((Z)-1,3,5-trimethylpiperidin-4-yl)amino)benzo[b]thiophen-2-yl)prop-2-yn-1-yl)amino)phenyl)dimethylphosphine oxide], the EC50 in experiment [1] is 33 nM; in experiment [2] (Homo sapiens, NUGC-3), 70 nM. For the same compound, the IC50 was determined as 660 nM in the experiment with NUGC3 (P53 Y220C) (Homo sapiens, NUGC-3, 144 h) and 2540 nM with NUGC4 (P53 WT) (Homo sapiens, NUGC-4, 144 h).
